Laboratory results reported in publication doi:10.1101/2025.10.30.685691v1 (biorxiv, 2025).

Experiments:
[1] = molecular target: BaPDH (WT-BaPDH, full-length ACT-containing prephenate dehydrogenase) (Bacillus anthracis, UniProt Q81P63); assay: biochemical
[2] = system: O=C(O)C(=O)CC1(C(=O)O)C=CC(O)C=C1; assay: purified protein; conditions: pH 7.5

Sequence of BaPDH (WT-BaPDH, full-length ACT-containing prephenate dehydrogenase) (Q81P63 1-378 limits assumed): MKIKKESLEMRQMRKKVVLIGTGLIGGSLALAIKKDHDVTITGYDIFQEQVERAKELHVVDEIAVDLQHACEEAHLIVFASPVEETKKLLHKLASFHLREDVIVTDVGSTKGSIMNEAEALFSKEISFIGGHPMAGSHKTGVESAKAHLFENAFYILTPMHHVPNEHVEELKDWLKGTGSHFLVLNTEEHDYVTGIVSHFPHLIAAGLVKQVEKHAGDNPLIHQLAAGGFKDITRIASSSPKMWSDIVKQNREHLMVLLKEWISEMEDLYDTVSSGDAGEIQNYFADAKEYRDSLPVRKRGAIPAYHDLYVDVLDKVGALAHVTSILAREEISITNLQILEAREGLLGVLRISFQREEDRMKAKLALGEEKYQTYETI

Molecule | Ki [1] | Km [2]
N[C@@H](Cc1ccc(O)cc1)C(=O)O [tyrosine] | 1500 ± 200 nM | 
BaPDH (WT-BaPDH, full-length ACT-containing prephenate dehydrogenase) (Bacillus anthracis) |  | 78 ± 10 µM
